Among the data in patent US12129257B1, “Imidazo[1,2-a]pyrazine compounds as CK2 inhibitors” (KING FAISAL UNIVERSITY, priority 2023, dated 2024) are IC50 values, retold here.

pIC50: −log10 of the molar value.

One assay concerns H1299 (lung). As to the kind of experiment: In vitro cytotoxic activity (MTT) assay, H1299. Format: cell-based. The conditions noted are these: Homo sapiens, NCI-H1299; H1299 (lung) cells, exposed for 96 hours; read-out: IC50, 50% inhibition of cell proliferation. The protocol:
(§1) Compounds 1a-12a and 1b-12b were screened for their in vitro cytotoxic activity utilizing a 3-(4,5-dimethyl-thiazol-2-yl)-2,5-diphenyltetrazolium bromide (MTT) assay against selected cancer human cell lines consisting of PC3 (prostate), HCT116 (colon), A375 (melanoma), H1299 (lung), MIAPaCa-2 (pancreas), HL60 (leukemia), MCF7 (breast), MDA-MB-231 (breast) (T. Mosmann, J. Immunol. Meth., 1983, 65, 55-63). The cells were cultured at 37° C. in RMPI1640 medium supplemented with 10% fetal bovine serum, 50 IU/mL penicillin, and 50 μg/mL streptomycin in a 5% CO2 incubator. All cells were sub-cultured 3 times/week by trypsinisation. Viable cells were seeded and allowed to adhere for 12 h before a test drug was added in 96-well plates at an initial density of 1.0×10^5 cells/mL. Tumor cell lines were separately exposed to various concentrations of the tested compounds followed by incubation at a temperature of 37° C. during 96 hours inside a medium of fresh RMPI1640. Cells were subsequently incubated at 37° C. using MTT at 0.5 mg/mL during 4 hours. After removal of supernatant, formazan crystals were dissolved in isopropanol and the optical density was measured at 570 nm. CX-4945 was used as a positive control.

The test system of the next assay is MCF7 (breast). The experiment in a line: In vitro cytotoxic activity (MTT) assay, MCF7. It is filed as cell-based. Conditions: Homo sapiens; MCF7 (breast) cells, exposed for 96 hours; read-out: IC50, 50% inhibition of cell proliferation. The method, then:
as §1

For the next assay, the system named is PC3 (prostate). The experiment in a line: In vitro cytotoxic activity (MTT) assay, PC3. Format: cell-based. The conditions noted are these: Homo sapiens, Prostate cell; PC3 (prostate) cells, exposed for 96 hours; read-out: IC50, 50% inhibition of cell proliferation. The method, then: as §1
Another assay relates to MDA-MB-231 (breast). The experiment in a line: In vitro cytotoxic activity (MTT) assay, MDA-MB-231. Conditions: Homo sapiens; MDA-MB-231 (breast) cells, exposed for 96 hours; read-out: IC50, 50% inhibition of cell proliferation. It is filed as cell-based. The protocol: as §1
In the next assay the test system is HL60 (leukemia). The experiment in a line: In vitro cytotoxic activity (MTT) assay, HL60. It is filed as cell-based. The conditions noted are these: Homo sapiens, HL-60; HL60 (leukemia) cells, exposed for 96 hours; read-out: IC50, 50% inhibition of cell proliferation. The method, then: as §1
Another assay relates to MIAPaCa-2 (pancreas). The experiment in a line: In vitro cytotoxic activity (MTT) assay, MIAPaCa-2. It is filed as cell-based. The conditions noted are these: Homo sapiens, MIA PaCa-2; MIAPaCa-2 (pancreas) cells, exposed for 96 hours; read-out: IC50, 50% inhibition of cell proliferation. The protocol: as §1
In the next assay the test system is HCT116 (colon). As to the kind of experiment: In vitro cytotoxic activity (MTT) assay, HCT116. Format: cell-based. Conditions: Homo sapiens, HCT-116; HCT116 (colon) cells, exposed for 96 hours; read-out: IC50, 50% inhibition of cell proliferation. The method, then:
as §1

In a further assay the test system is A375 (melanoma). The experiment in a line: In vitro cytotoxic activity (MTT) assay, A375. It is filed as cell-based. The conditions noted are these: Homo sapiens, A-375; A375 (melanoma) cells, exposed for 96 hours; read-out: IC50, 50% inhibition of cell proliferation. The protocol: as §1
For assay [1], the target named is T1, recombinant human CK2 (RRBB-holoenzyme) (Homo sapiens, UniProt P68400).
T1 construct: purchased Millipore
T1 sequence (P68400 whole entry): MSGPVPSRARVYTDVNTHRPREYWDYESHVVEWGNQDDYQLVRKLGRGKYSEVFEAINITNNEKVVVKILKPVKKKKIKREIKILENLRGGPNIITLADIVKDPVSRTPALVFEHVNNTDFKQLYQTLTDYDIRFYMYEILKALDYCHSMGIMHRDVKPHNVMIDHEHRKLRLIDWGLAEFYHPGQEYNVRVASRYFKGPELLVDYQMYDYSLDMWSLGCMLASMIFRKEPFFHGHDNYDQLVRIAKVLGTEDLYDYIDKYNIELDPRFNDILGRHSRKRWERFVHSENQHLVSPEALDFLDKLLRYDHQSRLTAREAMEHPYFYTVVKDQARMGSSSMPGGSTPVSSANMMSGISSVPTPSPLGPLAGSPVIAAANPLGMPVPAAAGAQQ
T1 sequence (P67870 whole entry partner): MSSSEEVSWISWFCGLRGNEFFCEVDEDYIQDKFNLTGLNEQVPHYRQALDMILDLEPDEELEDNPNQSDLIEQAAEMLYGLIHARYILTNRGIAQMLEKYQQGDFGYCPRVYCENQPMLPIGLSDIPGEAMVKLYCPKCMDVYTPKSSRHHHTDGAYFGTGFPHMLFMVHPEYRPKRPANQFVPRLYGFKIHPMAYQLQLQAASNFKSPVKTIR
The experiment in a line: CK2 Kinase Assay (33P-ATP, filter plate). Format: biochemical. Conditions: recombinant human CK2, final ATP concentration 15 μM, 10 min at 30° C.; read-out: protein kinase CK2 activity IC50. The protocol:
CK2 Kinase Assay was conducted using the protocol as described in Pierre F. et al; J. Med. Chem. 2011, 54, 635-654. The tested compounds in aqueous solution were added at a volume of 10 μL to a reaction mixture comprising 10 μL of assay dilution buffer (ADB; 20 mM MOPS, pH 7.2, 25 mM β-glycerol phosphate, 5 mM EGTA, 1 mM sodium orthovanadate, and 1 mM dithiothreitol), 10 μL of substrate peptide (RRRDDDSDDD, dissolved in ADB at a concentration of 1 mM), 10 μL of recombinant human CK2 (RRBB-holoenzyme, 25 ng dissolved in ADB; Millipore). Reactions were initiated by the addition of 10 μL of ATP solution (90%75 mMMgCl2, 75 μM ATP (final ATP concentration: 15 μM) dissolved in ADB; 10% [γ-33P] ATP (stock 1mCi/100 μL; 3000 Ci/mmol (Perkin-Elmer) and maintained for 10 min at 30° C. The reactions were quenched with 100 μL of 0.75% phosphoric acid and then transferred to and filtered through a phosphor cellulose filter plate (Millipore). After washing each well five times with 0.75% phosphoric acid, the plate was dried under vacuum for 5 min and, following the addition of 15 μL of scintillation fluid to each well, the residual radioactivity was measured using a Wallac luminescence counter. The IC50 values were derived from eight concentrations of test inhibitors.

As for `O=C(O)c1ccc2c(c1)nc(Nc1cccc(Cl)c1)c1ccncc12` [CX-4945, Silmitasertib, reference compound], the pIC50 in the assay with H1299 (lung) is 5.64; with MCF7 (breast), 5.04; with PC3 (prostate) it was 5.70; in the assay on MDA-MB-231 (breast), 5.21; in the assay on HL60 (leukemia) it was 5.43; with MIAPaCa-2 (pancreas), 6.00. The pIC50 was 5.64 in the assay on HCT116 (colon) and 5.39 with A375 (melanoma).
As to `FC(F)(F)c1cccc(Nc2c(-c3ccncn3)nc3cnccn23)c1` [Compound 2b, 2-(pyrimidin-4-yl)-N-(3-(trifluoromethyl)phenyl)imidazo[1,2-a]pyrazin-3-amine], the pIC50 in the assay on H1299 (lung) is 5.92; with MCF7 (breast) it was 5.30; in the assay on PC3 (prostate), 5.85; with MDA-MB-231 (breast), 5.38; in [1] it was 7.01; in the assay with HL60 (leukemia) it was 5.35. The pIC50 is 5.80 in the assay with MIAPaCa-2 (pancreas), 5.82 with HCT116 (colon) and 5.46 in the assay with A375 (melanoma).
Regarding `FC(F)(F)c1cccc(Nc2c(-c3ccncc3)nc3cnccn23)c1` [Compound 3a, 2-(pyridin-4-yl)-N-(3-(trifluoromethyl)phenyl)imidazo[1,2-a]pyrazin-3-amine], the pIC50 was 5.82 with H1299 (lung); 5.29 in the assay on MCF7 (breast); 5.92 in the assay with PC3 (prostate); 5.34 in the assay with MDA-MB-231 (breast); 6.94 in assay [1]; 5.36 in the assay on HL60 (leukemia). For the same compound, the pIC50 with MIAPaCa-2 (pancreas) was 5.89; in the assay with HCT116 (colon) it was 5.77; in the assay with A375 (melanoma), 5.47.
